Experimental data taken from US9102648B1, “Bioavailable diacylhydrazine ligands for modulating the expression of exogenous genes via an ecdysone receptor complex” (Intrexon Corporation, priority 2003, dated 2015).
Where two headings read alike, the source gives them in different places.

Experiments:
[1] = target: GAL4 DBD-CfEcR(DEF)/VP16AD-MmRXRE (Choristoneura fumiferana, UniProt O77240); assay: 13B3 Assay (CHO stable cell line, luciferase reporter); details: for Fold Induction, 13B3 Assay, 3.3 uM: 3.3 uM ligand; for Fold Induction, 13B3 Assay, 3.3 uM / Fold Induction, 13B3 Assay, 33 uM: RLU ligand treated / RLU DMSO treated cells; for Fold Induction, 13B3 Assay, 33 uM: 33 uM ligand; for 13B3 assay Rel Max FI: maximum fold induction at any concentration relative to that of GS-E ligand, CHO 13B3 cells; for fold induction at 3.3 µM: read-out: Fold Induction, 13B3 Assay, 3.3 uM; for fold induction at 33 µM: read-out: Fold Induction, 13B3 Assay, 33 uM
How it was run: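 CHO 13B3 clone stably expressing GAL4 DBD–CfEcR(DEF) and VP16AD–MmRXR(DE) with GAL4 RE–luciferase reporter; cells plated 24 h at 37 °C, then treated with ligands (DMSO stocks diluted 300-fold), 8 concentrations 33–0.01 μM.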

[2] = target: T1, Bombyx mori EcR (VP16 fusion, CVBE switch construct) (Bombyx mori, UniProt P49881); assay: Z3 Assay (HEK-293 cells with CVBE and 6XEcRE LacZ, β-galactosidase reporter); details: for Fold Induction, Z3 Assay, 3.3 uM: 3.3 uM ligand; for Fold Induction, Z3 Assay, 3.3 uM / Fold Induction, Z3 Assay, 33 uM: ligand treated / DMSO treated cells; for Fold Induction, Z3 Assay, 33 uM: 33 uM ligand; for Z3 assay Rel Max FI: maximum fold induction at any concentration relative to that of GS-E ligand; for fold induction at 3.3 µM: HEK293, read-out: Fold Induction, Z3 Assay, 3.3 uM; for fold induction at 33 µM: HEK293, read-out: Fold Induction, Z3 Assay, 33 uM
T1 sequence (P49881 86-606): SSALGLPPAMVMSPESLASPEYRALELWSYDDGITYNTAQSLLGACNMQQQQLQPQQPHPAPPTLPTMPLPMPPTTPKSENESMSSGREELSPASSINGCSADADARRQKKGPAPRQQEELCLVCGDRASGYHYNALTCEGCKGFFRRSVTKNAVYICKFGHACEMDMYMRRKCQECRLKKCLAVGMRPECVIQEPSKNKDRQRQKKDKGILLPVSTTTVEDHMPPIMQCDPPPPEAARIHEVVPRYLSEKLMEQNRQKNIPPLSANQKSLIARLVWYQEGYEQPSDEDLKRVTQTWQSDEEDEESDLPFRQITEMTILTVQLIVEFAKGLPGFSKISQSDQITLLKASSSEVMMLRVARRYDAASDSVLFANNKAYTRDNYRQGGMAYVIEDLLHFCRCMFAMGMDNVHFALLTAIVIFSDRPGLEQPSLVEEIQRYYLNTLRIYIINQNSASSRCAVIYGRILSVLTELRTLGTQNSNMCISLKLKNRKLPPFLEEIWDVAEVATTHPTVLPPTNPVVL
T1 sequence (P19793 1-462 partner): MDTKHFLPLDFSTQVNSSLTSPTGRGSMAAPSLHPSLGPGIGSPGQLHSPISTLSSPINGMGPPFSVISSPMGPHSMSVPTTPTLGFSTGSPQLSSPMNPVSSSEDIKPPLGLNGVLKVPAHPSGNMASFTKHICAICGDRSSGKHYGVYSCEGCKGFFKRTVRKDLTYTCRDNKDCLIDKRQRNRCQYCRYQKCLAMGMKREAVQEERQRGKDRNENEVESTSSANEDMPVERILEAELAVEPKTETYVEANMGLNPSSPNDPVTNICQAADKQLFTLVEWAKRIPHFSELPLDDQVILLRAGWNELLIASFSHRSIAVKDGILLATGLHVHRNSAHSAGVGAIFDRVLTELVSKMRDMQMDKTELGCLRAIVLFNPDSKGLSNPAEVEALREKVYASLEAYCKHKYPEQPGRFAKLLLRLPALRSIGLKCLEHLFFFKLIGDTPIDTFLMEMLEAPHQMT

[3] = read-out: 13B3 EC50, CHO 13B3 stable cell line, luciferase reporter, 48 h, average of two wells
[4] = read-out: Z3 assay EC50, HEK-293 Z3 cells, β-galactosidase reporter, average of two wells

| SMILES | Fold Induction, 13B3 Assay, 3.3 uM ([1]; average of two wells) | Fold Induction, 13B3 Assay, 33 uM ([1]; average of two wells) | 13B3 assay Rel Max FI [1] | EC50 [1, 3] | Fold Induction, Z3 Assay, 3.3 uM ([2]; average of two wells) | Fold Induction, Z3 Assay, 33 uM ([2]; average of two wells) | Z3 assay Rel Max FI ([2]; HEK-293 Z3 cells) | EC50 [2, 4] | EC50 [1] | fold induction at 3.3 µM [1] | fold induction at 33 µM [1] | EC50 [2] | fold induction at 3.3 µM [2] | fold induction at 33 µM [2] |
| --- | --- | --- | --- | --- | --- | --- | --- | --- | --- | --- | --- | --- | --- | --- |
| CCc1c(C(=O)NN(C(=O)c2ccccc2OC)C(C)(C)C)ccc2c1OCCO2 [RG-100690] | 1094 | 500 | 0.506 | 268 nM | 779 | 475 | 1.008 | 240 nM |  |  |  |  |  |  |
| Cc1c(C(=O)NN(C(=O)c2ccc(F)cc2)C(C)(C)C)ccc2c1CCCO2 [RG-115118] | 979 | 769 | 0.530 | 689 nM | 90 | 1160 | 0.969 | 234 nM |  |  |  |  |  |  |
| COc1cccc(C(=O)NN(C(=O)c2cc(C)cc(C)c2)C(C)(C)C)c1N [RG-115378] | 1778 | 2424 | 0.655 | 1760 nM | 488 | 1464 | 0.947 | 324 nM |  |  |  |  |  |  |
| COc1cccc(C(=O)NN(C(=O)c2cc(C)ccc2[N+](=O)[O-])C(C)(C)C)c1C [RG-100569] | 1710 | 329 | 0.773 | 185 nM | 754 | 457 | 0.835 | 98 nM |  |  |  |  |  |  |
| COc1cccc(C(=O)NN(C(=O)c2cc(C)cc(C)c2)C(C)(C)C)c1C [RG-102398] |  |  | 0.838 |  |  |  | 1.027 |  | 627 nM | 8120 | 795 | 95 nM | 535 | 1970 |
| Cc1ccc([N+](=O)[O-])c(C(=O)N(NC(=O)c2ccc3c(c2C)OCCO3)C(C)(C)C)c1 [RG-115384] | 2753 | 2277 | 0.426 | 320 nM | 337 |  | 0.904 | 166 nM |  |  |  |  |  |  |
| CCc1c(C(=O)NN(C(=O)c2cc(OC)c(C)c(OC)c2)C(C)(C)C)ccc2c1OCCO2 [RG-115130] | 987 | 511 |  | 512 nM | 412 | 930 |  | 36 nM |  |  |  |  |  |  |
| CCc1c(C(=O)NN(C(=O)c2ccccc2OC)C(C)(C)C)ccc2c1OCOC2 [RG-115065] |  | 880 |  |  |  | 878 |  | 1480 nM |  |  |  |  |  |  |
| Cc1c(C(=O)NN(C(=O)c2cc(F)cc(F)c2)C(C)(C)C)ccc2c1CCCO2 [RG-115207] | 7260 | 7959 | 0.707 | 618 nM | 354 | 508 | 0.923 | 257 nM |  |  |  |  |  |  |
| COc1ccc(C(=O)N(NC(=O)c2ccc3c(c2C)OCCO3)C(C)(C)C)c(OC)n1 [RG-115517, 2,6-dimethoxy-nicotinic acid N-tert-butyl-N′-(5-methyl-2,3-dihydro-benzo[1,4]dioxine-6-carbonyl)-hydrazide] |  |  | 0.675 |  |  |  | 0.923 |  | 355 nM | 8400 | 12000 | 89 nM | 408 |  |
| COc1ccc(Cl)cc1C(=O)N(NC(=O)c1ccc2c(c1C)CCCO2)C(C)(C)C [RG-115551] |  | 290 |  |  |  | 470 |  | 398 nM |  |  |  |  |  |  |
| COc1cccc(C(=O)NN(C(=O)c2cc(Cl)c(F)c(Cl)c2)C(C)(C)C)c1C [RG-101382, N-(3-methoxy-2-methylbenzoyl)-N′-(3,5-dichloro-4-fluorobenzoyl)-N′-tert-butylhydrazine] |  |  | 0.915 |  |  |  | 0.951 |  | 588 nM | 13100 | 1010 | 66 nM | 725 | 426 |
| CCc1c(OC)cccc1C(=O)NN(C(=O)c1ccc(Cl)cc1[N+](=O)[O-])C(C)(C)C [RG-115647] | 2169 | 98 | 0.662 | 832 nM | 96 | 510 | 0.923 | 145 nM |  |  |  |  |  |  |
| CCc1c(C(=O)NN(C(=O)c2ccc(F)c(F)c2F)C(C)(C)C)ccc2c1OCCO2 [RG-115580] |  | 298 |  |  |  | 615 |  | 182 nM |  |  |  |  |  |  |
| Cc1c(C(=O)NN(C(=O)c2cc(F)c(F)c(F)c2)C(C)(C)C)ccc2c1CCCO2 [RG-115575, 3,4,5-Trifluoro-benzoic acid N-tert-butyl-N′-(5-methyl-chroman-6-carbonyl)-hydrazide] |  |  | 0.641 |  |  |  | 0.886 |  | 271 nM | 3080 | 865 | 102 nM | 282 | 785 |
| CCc1c(OC)cccc1C(=O)NN(C(=O)c1cc(F)c(Cl)cc1Cl)C(C)(C)C [RG-115302] | 521 | 648 | 0.624 | 2000 nM |  | 404 |  | 275 nM |  |  |  |  |  |  |
| CCc1c(OC)cccc1C(=O)NN(C(=O)c1cc(C)cc(C)c1)C(C)(C)C [RG-102240, N-(3-methoxy-2-ethylbenzoyl)-N′-(3,5-dimethylbenzoyl)-N′-tert-butylhydrazine] |  |  | 1 |  |  |  | 1 |  | 500 nM |  |  | 286 nM |  |  |
| CCc1c(OC)cccc1C(=O)NN(C(=O)c1ccc2c(c1)OCO2)C(C)(C)C [RG-100699] |  | 2296 |  |  |  | 415 |  | 2090 nM |  |  |  |  |  |  |
| CCc1c(OC)cccc1C(=O)NN(C(=O)c1cc(Cl)ccc1[N+](=O)[O-])C(C)(C)C [RG-115257] | 820 | 354 | 0.742 | 886 nM | 297 | 691 | 0.885 | 204 nM |  |  |  |  |  |  |
| COc1cccc(C(=O)NN(C(=O)c2cc(C)cc(C)c2)C(C)(C)C)c1[N+](=O)[O-] [RG-100568] | 2 | 4122 | 1.035 | 44300 nM | 276 | 1193 | 0.855 | 3310 nM |  |  |  |  |  |  |
| CCc1ccc(C(=O)NN(C(=O)c2cc(C)cc(C)c2)C(C)(C)C)cc1 [RG-102125] |  |  |  |  |  |  |  |  | 479 nM |  |  | 174 nM |  |  |
| CCc1c(OC)cccc1C(=O)NN(C(=O)c1ccccc1OC)C(C)(C)C [RG-100725] |  | 581 |  |  |  | 511 |  |  |  |  |  |  |  |  |
| CCc1c(OC)cccc1C(=O)NN(C(=O)c1cc(C)cc(C)c1)C(C)(C)C=NO [RG-115258, 2-ethyl-3-methoxy-benzoic acid N′-(3,5-dimethyl-benzoyl)-N′-(2-hydroxyimino-1,1-dimethyl-ethyl)-hydrazide] |  |  | 1.334 |  |  |  | 0.882 |  | 27100 nM | 144 | 3740 | 646 nM | 382 | 1120 |
